From ChEMBL document CHEMBL2401734, “Structures and biosynthesis of 12-membered macrocyclic depsipeptides from Streptomyces sp. ML55” (Bioorg Med Chem Lett, 2013)
Active and inactive are the calls of the source. The calls are words filed in the database; no cut-off is given here.

Tested on: HT-29
Experiment: Antiproliferative activity against human HT-29 cells after 1 to 15 hrs
Format: functional, cell-based

| SMILES | Activity |
| --- | --- |
| CCC(C)C1OC(=O)[C@@H](NC(=O)c2cccc(N)c2O)[C@H](C)OC(=O)C(C)(C)C(=O)C(CC(C)C)OC1=O (some centres not stated) | Active |
| CCC(C)C1OC(=O)[C@@H](NC(=O)c2cccc(O)c2O)[C@H](C)OC(=O)C(C)(C)C(=O)C(CC(C)C)OC1=O (some centres not stated) | Active |
